Measurements from publication PMC6443376 (Journal of medicinal chemistry, 2018).
Like-named read-outs stand apart in the source and are kept apart here.

What was measured:
[1] = system: P3 mouse cochlear explants; experiment: Cochlear explant cultures treated with cisplatin, outer hair cell counts; conditions: for Protection at higher doses in explants treated with cisplatin: dose-response
[2] = weekly dosing schedule, phase I study; cited from earlier work
[3] = system: outer hair cells, 32-kHz region of the organ of Corti; experiment: Morphologic analysis and OHC counts of cochleae from cisplatin-treated mice; type: in vivo, mouse
[4] = system: cisplatin-induced ototoxicity in adult FVB mice; type: in vivo, mouse; conditions: 50 μM transtympanic
[5] = system: cisplatin-induced ototoxicity in adult FVB mice; conditions: earlier study of the authors; cited from earlier work
[6] = system: adult FVB mice; experiment: Toxicity of compound alone delivered transtympanically; conditions: 2, 10 or 50 μM, single transtympanic injection, 15 days after injection
[7] = target: Cdk2/Cyclin A (Homo sapiens, UniProt P24941); experiment: CDK2 inhibition assay; type: biochemical

## O=C(NC1CCNCC1)c1n[nH]cc1NC(=O)c1c(Cl)cccc1Cl [AT7519, N-(4-piperidinyl)-4-(2,6-dichlorobenzoylamino)-1H-pyrazole-3-carboxamide]
[1]; compound 25 nM, cisplatin 150 μM
  Protection in cochlear explant cultures treated with cisplatin: excellent protection
[1]
  Protection at higher doses in explants treated with cisplatin: loss of activity was observed at higher doses

## Cc1ncc(-c2ccnc(Nc3ccc(S(C)(=O)=O)cc3)n2)n1C(C)C [AZD5438]
[2]
  Safety and tolerability in patients: safe and well tolerated
[3]; 50 μM transtympanic 1 h before and 24 h after cisplatin
  OHC loss in the 32-kHz region: virtually no OHC loss
[4]
  Overall protection against cisplatin-induced ototoxicity in mice: fully protective

## O=C1Cc2c([nH]c3ccc(Br)cc23)-c2ccccc2N1 [Kenpaullone]
[5]
  Overall protection against cisplatin-induced ototoxicity in mice: complete protection

## O=C(N[C@H]1CC[C@H](O)CC1)c1n[nH]cc1NC(=O)c1c(F)cccc1F [analog 7]
[3]; 50 μM transtympanic 1 h before cisplatin
  OHC loss in middle basal turn (32-kHz region) vs cisplatin alone: Substantially less OHC loss
[1]; compound 150 nM, P3 mouse explants, OHC counts
  Protection against cisplatin toxicity in cochlear explants: significant protection
[1]
  Protection at higher doses in explants treated with cisplatin: maintains the level of protection at higher doses
[4]
  Overall protection against cisplatin-induced ototoxicity in mice: some—but not complete—protection
[6]
  Toxicity in the ears of mice in the absence of cisplatin: nontoxic

## O=C(NC1CCN(C(=O)c2c(Cl)cccc2Cl)CC1)c1n[nH]cc1NC(=O)c1c(Cl)cccc1Cl [analog 14]
[7]
  IC50: 0.76 µM

## AZD1080
[1]; read-out: Explant EC50, estimated EC50 based on 2–3 tested dose concentrations, cisplatin 150 μM
  EC50: 15 µM
